According to patent US12030879B2, “Sulfonyl acetamides as NLRP3 inhibitors” (Inflazome Limited, priority 2018, dated 2024):

molecular target: T1, NLRP3 (Homo sapiens, UniProt Q96P20); experiment: THP-1 cells pyroptosis assay; type: cell-based; conditions: LPS 1 μg/ml, compound 3 hrs, nigericin 5 μM 1 hr, resazurin readout
T1 construct: Seed THP-1 cells (25,000 cells/well) containing 1.0 μg/ml LPS in 40 μl of RPMI medium; host or cells: THP-1 cells
Method in brief: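 LPS-primed (1 μg/ml) THP-1 cells in serum-free RPMI were treated 3 h with compound (8-point half-log, top 10 μM; 0.1% DMSO), then with 5 μM nigericin for 1 h at 37°C. Viability was read by 100 μM resazurin (ex 560/em 590 nm) after 1–2 h. IC50 came from 4-parameter nonlinear regression.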

T1 sequence (Q96P20 whole entry): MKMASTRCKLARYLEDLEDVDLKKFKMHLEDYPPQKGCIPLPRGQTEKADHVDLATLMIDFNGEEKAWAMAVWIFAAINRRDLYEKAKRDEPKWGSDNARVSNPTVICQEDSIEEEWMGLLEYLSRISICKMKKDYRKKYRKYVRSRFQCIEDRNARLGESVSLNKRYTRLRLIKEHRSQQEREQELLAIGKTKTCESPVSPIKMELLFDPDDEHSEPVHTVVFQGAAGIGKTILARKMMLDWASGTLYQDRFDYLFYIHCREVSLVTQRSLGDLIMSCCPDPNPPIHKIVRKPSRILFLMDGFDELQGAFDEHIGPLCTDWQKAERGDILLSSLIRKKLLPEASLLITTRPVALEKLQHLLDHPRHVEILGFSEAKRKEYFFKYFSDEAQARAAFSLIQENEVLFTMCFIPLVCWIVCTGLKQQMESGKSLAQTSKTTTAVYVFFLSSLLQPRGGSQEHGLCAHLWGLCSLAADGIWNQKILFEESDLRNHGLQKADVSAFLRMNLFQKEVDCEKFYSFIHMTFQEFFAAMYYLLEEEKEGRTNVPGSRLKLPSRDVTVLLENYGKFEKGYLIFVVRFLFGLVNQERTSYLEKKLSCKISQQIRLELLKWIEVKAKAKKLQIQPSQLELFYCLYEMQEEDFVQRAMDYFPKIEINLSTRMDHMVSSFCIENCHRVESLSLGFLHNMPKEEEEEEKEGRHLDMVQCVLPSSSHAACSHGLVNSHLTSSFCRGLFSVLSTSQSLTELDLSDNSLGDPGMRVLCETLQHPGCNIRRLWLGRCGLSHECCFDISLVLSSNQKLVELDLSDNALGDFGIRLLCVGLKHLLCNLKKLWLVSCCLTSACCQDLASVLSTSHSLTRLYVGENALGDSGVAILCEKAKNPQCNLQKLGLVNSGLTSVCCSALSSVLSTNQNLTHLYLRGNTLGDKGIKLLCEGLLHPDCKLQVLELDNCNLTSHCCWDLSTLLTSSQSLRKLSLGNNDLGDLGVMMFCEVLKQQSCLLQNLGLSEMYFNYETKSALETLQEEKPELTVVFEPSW

IC50	Structure (SMILES)
≤ 500 nM	COc1cc(-c2ccc3c(c2CC(=O)NS(=O)(=O)c2ccc(C(C)(C)O)cc2C)CCC3)ccn1 [Example 85, N-((4-(2-Hydroxypropan-2-yl)-2-methylphenyl)sulfonyl)-2-(5-(2-methoxypyridin-4-yl)-2,3-dihydro-1H-inden-4-yl)acetamide]
≤ 1000 nM	COc1cc(-c2cc(F)cc(C(C)C)c2CC(=O)NS(=O)(=O)c2ccc(C(C)C)cc2)ccn1 [Example 110, 2-(4-Fluoro-2-isopropyl-6-(2-methoxypyridin-4-yl)phenyl)-N-((4-isopropylphenyl)sulfonyl)acetamide]
≤ 1000 nM	COc1cc(-c2cc(F)cc(C(C)C)c2CC(=O)NS(=O)(=O)c2cc(Br)cs2)ccn1 [Example 183]
≤ 1000 nM	COc1cc(-c2cc(F)cc(C(C)C)c2CC(=O)NS(=O)(=O)c2ccc(-c3cnco3)cc2)ccn1 [Example 184]
≤ 500 nM	COc1cc(-c2cc(F)cc(C(C)C)c2CC(=O)NS(=O)(=O)c2ccc(C(C)C)cn2)ccn1 [Example 185]
≤ 500 nM	Cc1cc(C(C)(C)O)ccc1S(=O)(=O)NC(=O)Cc1c(-c2ccncc2)cc(F)cc1C(C)C [Example 186]
≤ 5000 nM	COc1cc(-c2cc(F)cc(C(C)C)c2CC(=O)NS(=O)(=O)c2ccc(CC#N)cc2)ccn1 [Example 187]
≤ 10000 nM	COc1cc(-c2cc(F)cc(C(C)C)c2CC(=O)NS(=O)(=O)c2nc(C)cc(C)n2)ccn1 [Example 188]
≤ 500 nM	Cc1cc(C(C)(C)O)ccc1S(=O)(=O)NC(=O)Cc1c(-c2ccnc(C#N)c2)ccc2c1CCC2 [Example 189]
≤ 5000 nM	COc1cc(-c2cc(F)cc(C(C)C)c2CC(=O)NS(=O)(=O)c2ccc(C(C)(C)C#N)cc2)ccn1 [Example 190]
≤ 1000 nM	COc1cc(-c2cc(F)cc(C(C)C)c2CC(=O)NS(=O)(=O)c2cncc(N(C)C)n2)ccn1 [Example 191]
≤ 5000 nM	COc1cc(-c2cc(F)cc(C(C)C)c2CC(=O)NS(=O)(=O)c2ccn(C(C)(C)CN(C)C)n2)ccn1 [Example 192]
≤ 5000 nM	COc1cc(-c2cc(F)cc(C(C)C)c2CC(=O)NS(=O)(=O)c2cnn(CC(C)(C)O)c2)ccn1 [Example 193]
≤ 5000 nM	COCC(C)(C)n1ccc(S(=O)(=O)NC(=O)Cc2c(-c3ccnc(OC)c3)cc(F)cc2C(C)C)n1 [Example 194]
≤ 5000 nM	COc1cc(-c2cc(F)cc(C(C)C)c2CC(=O)NS(=O)(=O)c2ccn(C(C)(C)CO)n2)ccn1 [Example 195]
≤ 10000 nM	COc1cc(-c2cc(F)cc(C(C)C)c2CC(=O)NS(=O)(=O)c2cc(C(C)(C)O)n(C(C)C)n2)ccn1 [Example 196]
≤ 5000 nM	COc1cc(-c2cc(F)cc(C(C)C)c2CC(=O)NS(=O)(=O)c2cc(C(C)(C)O)n(C)n2)ccn1 [Example 197]
≤ 500 nM	COc1cc(-c2cc(F)cc(C(C)C)c2CC(=O)NS(=O)(=O)c2cncc(C(C)(C)O)c2)ccn1 [Example 198]
≤ 500 nM	CCC(O)(CC)c1cc(S(=O)(=O)NC(=O)Cc2c(-c3ccnc(OC)c3)cc(F)cc2C(C)C)sc1C [Example 199]
≤ 500 nM	CC(C)c1cc(S(=O)(=O)NC(=O)Cc2c(-c3cccnc3)cc(F)cc2C(C)C)c(F)cc1F [Example 200]
≤ 500 nM	CC(C)c1cc(S(=O)(=O)NC(=O)Cc2c(-c3ccncc3)cc(F)cc2C(C)C)c(F)cc1F [Example 201]
≤ 5000 nM	Cc1nc(C(C)C)c(CC(=O)NS(=O)(=O)c2cc(C(C)C)c(F)cc2F)n1-c1ccncc1 [Example 202]
≤ 500 nM	COc1ccncc1-c1cc(F)cc(C(C)C)c1CC(=O)NS(=O)(=O)c1cc(C(C)C)c(F)cc1F [Example 203]
≤ 5000 nM	COc1cc(-c2ccc3c(c2CC(=O)NS(=O)(=O)c2cc(C(C)C)c(F)cc2F)CCC3)ccn1 [Example 204]
≤ 500 nM	COc1cc(-c2cc(F)cc(C(C)C)c2CC(=O)NS(=O)(=O)c2cc(C(C)C)cs2)ccn1 [Example 205]
≤ 500 nM	COc1cc(-c2cc(F)cc(C(C)C)c2CC(=O)NS(=O)(=O)c2cc(C(C)C)ccc2C)ccn1 [Example 206]
≤ 1000 nM	CCCn1cc(S(=O)(=O)NC(=O)Cc2c(-c3ccnc(OC)c3)cc(F)cc2C(C)C)c(C)n1 [Example 207]
≤ 5000 nM	COc1cc(-c2cc(F)cc(C(C)C)c2CC(=O)NS(=O)(=O)c2cn(CC(C)C)nc2C)ccn1 [Example 208]
≤ 500 nM	C=C(C)c1ccc(C)c(S(=O)(=O)NC(=O)Cc2c(-c3ccnc(OC)c3)cc(F)cc2C(C)C)c1 [Example 209]

test system: not listed separately; experiment: PK protocol, intravenous administration in rats; type: in vivo; conditions: rat, plasma, male Sprague Dawley rats, 1 mg/kg
Experimental: Pharmacokinetic parameters were determined in male Sprague Dawley rats (Vital River Laboratory Animal Technology Co Ltd, Beijing, China, 7-9 weeks old). Animals were group housed during the study and maintained under a 12 h light/dark cycle.
For intravenous administration, compounds were formulated as a solution in DMSO:PBS [10:90] in 2 mL/kg dosing volume and administered via tail vein.
Serial blood samples (about 200 μL) were taken from each animal at each of 8 time-points post dose (0.083, 0.25, 0.5, 1, 2, 4, 8 and 24 h). Samples were held on ice for no longer than 30 minutes before centrifugation (5,696 rpm (3,000 g) for 15 minutes) for plasma generation. Plasma was frozen on dry ice prior to bioanalysis. PK parameters were generated from LC-MS/MS data using Phoenix WinNonlin 6.3 software.

AUC	clearance	half-life	Structure (SMILES)
926 ng·h/mL	29.1 mL/min/kg	19.8 h	COc1cc(-c2ccc3c(c2CC(=O)NS(=O)(=O)c2ccc(C(C)(C)O)cc2C)CCC3)ccn1 [Example 85, N-((4-(2-Hydroxypropan-2-yl)-2-methylphenyl)sulfonyl)-2-(5-(2-methoxypyridin-4-yl)-2,3-dihydro-1H-inden-4-yl)acetamide]
1260 ng·h/mL	13.3 mL/min/kg	7.2 h	COc1cc(-c2cc(F)cc(C(C)C)c2CC(=O)NS(=O)(=O)c2ccc(C(C)C)cc2)ccn1 [Example 110, 2-(4-Fluoro-2-isopropyl-6-(2-methoxypyridin-4-yl)phenyl)-N-((4-isopropylphenyl)sulfonyl)acetamide]

same assay, conditions: rat, plasma, male Sprague Dawley rats, 1 mg/kg, read-out: Vdss

Vd	Structure (SMILES)
12.2 L/kg	COc1cc(-c2ccc3c(c2CC(=O)NS(=O)(=O)c2ccc(C(C)(C)O)cc2C)CCC3)ccn1 [Example 85, N-((4-(2-Hydroxypropan-2-yl)-2-methylphenyl)sulfonyl)-2-(5-(2-methoxypyridin-4-yl)-2,3-dihydro-1H-inden-4-yl)acetamide]
6.72 L/kg	COc1cc(-c2cc(F)cc(C(C)C)c2CC(=O)NS(=O)(=O)c2ccc(C(C)C)cc2)ccn1 [Example 110, 2-(4-Fluoro-2-isopropyl-6-(2-methoxypyridin-4-yl)phenyl)-N-((4-isopropylphenyl)sulfonyl)acetamide]
